Test [1] concerns Musca domestica. Nature of the test: Musca domestica test. The format is in vivo. To be noted: 100 ppm; adult houseflies; after 2 days. The protocol: (§1) • Solvent: dimethyl sulfoxide
To produce a suitable active ingredient formulation, 10 mg of active ingredient are mixed with 0.5 ml of dimethyl sulfoxide, and the concentrate is diluted with water to the desired concentration.
Vessels containing a sponge treated with sugar solution and the active ingredient formulation of the desired concentration are populated with 10 adult houseflies (Musca domestica).

For test [2], the system named is Spodoptera frugiperda. Nature of the test: Spodoptera frugiperda spray test. To be noted: 100 g/ha; after 7 days. The format is in vivo.
The test system of test [3] is Boophilus microplus. Nature of the test: Boophilus microplus injection test. The format is in vivo. Particulars: 20 μg/animal; assessed after 7 days. Here is the method: as §1
1 μl of the active ingredient solution is injected into the abdomen of 5 engorged adult female cattle ticks (Boophilus microplus). The animals are transferred into dishes and kept in a climate-controlled room.

For test [4], the system named is Phaedon cochleariae. Nature of the test: Phaedon cochleariae spray test. To be noted: 100 g/ha; after 7 days.
The subject of test [5] is Tetranychus urticae. Nature of the test: Tetranychus urticae spray test, OP-resistant (bean leaf discs). The format is in vivo. Particulars: 100 g/ha; after 6 days. The protocol:
(§2) After 6 days, the efficacy in % is determined.

Test [6] concerns cattle ticks (Boophilus microplus) Parkhurst strain, SP-resistant. In words: Boophilus microplus dip test. To be noted: 100 ppm; assessed after 7 days. The test is classed as in vivo. The protocol:
• Test animals: cattle ticks (Boophilus microplus) Parkhurst strain, SP-resistant • Solvent: dimethyl sulfoxide
10 mg of active ingredient are dissolved in 0.5 ml of dimethyl sulfoxide. To produce a suitable formulation, the active ingredient solution is diluted with water to the concentration desired in each case.
This active ingredient formulation is pipetted into tubes. 8-10 engorged adult female cattle ticks (Boophilus microplus) are transferred into a further tube with holes. The tube is immersed into the active ingredient formulation, and all the ticks are completely wetted. After the liquid has run out, the ticks are transferred on filter discs into plastic dishes and stored in a climate-controlled room.
Efficacy is assessed after 7 days by laying of fertile eggs. Eggs which are not visibly fertile are stored in a climate-controlled cabinet until the larvae hatch after about 42 days. An efficacy of 100% means that none of the ticks has laid any fertile eggs; 0% means that all the eggs are fertile.

In test [7] the test system is Ctenocephalides felis. In words: Ctenocephalides felis oral test. The test is classed as in vivo. To be noted: 100 ppm in citrated cattle blood; after 2 days.
Test [8] has as its system Rhipicephalus sanguineus. In words: Rhipicephalus sanguineus in vitro contact test with adult brown dog ticks. The test is classed as in vivo. Particulars: after 48 h. In a few lines: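 Adult Rhipicephalus sanguineus (5-10 per tube) held in glass tubes coated with compound from acetone solution, 900 ppm giving 5 μg/cm^2, in the dark at room temperature. After 48 h ticks put on a 45-50° C hotplate up to 5 min; motionless or uncoordinated ticks scored dead/moribund as % efficacy.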

For test [9], the system named is Ctenocephalides felis. In words: Ctenocephalides felis in vitro contact test with adult cat fleas. The test is classed as in vivo. To be noted: application rate 5 μg/cm^2 (=500 g/ha); after 48 h; dead or moribund fleas. In a few lines:
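Glass tubes were coated with compound in acetone (900 ppm solution gives 5 μg/cm²), dried, then loaded with 5–10 adult cat fleas. Held horizontal at room temperature and ambient humidity for 48 h. Efficacy is the % of fleas dead or moribund (motionless or uncoordinated after knock-down).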

Test [10] concerns Myzus persicae. Nature of the test: Myzus persicae spray test (Chinese cabbage leaf discs). The format is in vivo. Particulars: 100 g/ha; after 6 days. Here is the method:
as §2

The mark [11] stands for this setting: application rate 5 μg/cm^2 (=500 g/ha), dead or moribund ticks.

Take `CC(=O)NCc1cc(-c2cnn(-c3c(Cl)cc(C(F)(C(F)(F)F)C(F)(F)F)cc3C(F)F)c2)ccc1Cl` [Ia-106]: the “efficacy (rate of extermination)” value in test [1] and in test [7] was 100% in each case. In addition, the efficacy in test [2], in test [4] and in [5] was 100% throughout. For the same compound, the “efficacy (laying of fertile eggs)” value in test [3] and in [6] was 100% in each case.

For the compound `CC(=O)NCc1cc(-c2cnn(-c3c(Cl)cc(C(F)(C(F)(F)F)C(F)(F)F)cc3C#N)c2)ccc1C` [Ia-96], the efficacy in test [2], in test [8] (application rate 1 μg/cm^2 (=100 g/ha)) and in [5] was 100% each time. The entries for the “efficacy (laying of fertile eggs)” value in test [3] and in [6] were 100% and 90%, respectively. Further, in test [7], the “efficacy (rate of extermination)” value turned out to be 100%.

As to `CC(=O)NCc1cc(-c2cnn(-c3c(C)cc(C(F)(C(F)(F)F)C(F)(F)F)cc3Cl)c2)ccc1F` [Ia-65], the efficacy is given as 100% in test [9]; 100% in test [2]; 90% in [10]; 100% in test [8] (setting [11]); 100% in [4]; 100% in [5]. In addition, the “efficacy (rate of extermination)” value in test [1] and in [7] was 100% throughout. The “efficacy (laying of fertile eggs)” value in test [3] and in test [6] was 100% each time.

`CCC(=O)NCc1cc(-c2cnn(-c3c(C)cc(C(F)(C(F)(F)F)C(F)(F)F)cc3C)c2)ccc1Cl` [Ia-93]: the efficacy in test [9], in test [2], in test [8] (setting [11]), in test [4] and in test [5] was 100% each time. The “efficacy (rate of extermination)” value in test [1] and in [7] was 100% in each case. The “efficacy (laying of fertile eggs)” value is listed as 100% in test [3] and 95% in test [6].

`CCC(=O)NCc1cc(-c2cnn(-c3c(Cl)cc(C(F)(C(F)(F)F)C(F)(F)F)cc3C(F)F)c2)ccc1F` [Ia-23]: the efficacy in test [9] stood at 100%; in [2] it was 100%; in test [10] it was 90%; in test [8] (setting [11]) it was 100%; in test [4], 100%; in test [5], 100%. In addition, the “efficacy (rate of extermination)” value in test [1] and in [7] was 100% each time. Besides, the “efficacy (laying of fertile eggs)” value in test [3] and in [6] was 100% in each case.

Turning to `CC(=O)NCc1cc(-c2cnn(-c3c(Cl)cc(C(F)(C(F)(F)F)C(F)(F)F)cc3C(F)(F)F)c2)ccc1C` [Ia-79], the efficacy in test [9] came out at 100%; in [2] it was 100%; in test [10], 90%; in test [8] (setting [11]), 100%; in test [5] it was 100%. Further, the “efficacy (rate of extermination)” value in [1] and in test [7] was 100% in each case. Further, the “efficacy (laying of fertile eggs)” value in test [3] and in [6] was 100% in each case.

`CC(=O)NCc1cc(-c2cnn(-c3c(C)cc(C(F)(C(F)(F)F)C(F)(F)F)cc3Cl)c2)ccc1Cl` [Ia-84]: the “efficacy (rate of extermination)” value in test [1] and in test [7] was 100% each time. Besides, the efficacy in [2] is listed as 100%; in test [10] it was 90%; in test [4], 100%; in [5], 100%. The “efficacy (laying of fertile eggs)” value in test [3] and in test [6] was 100% in each case.

On to `CC(=O)NCc1c(F)ccc(-c2cnn(-c3c(Cl)cc(C(F)(C(F)(F)F)C(F)(F)F)cc3C(F)F)c2)c1F` [Ia-142], for which the efficacy is 100% in [9]; 100% in [2]; 90% in [10]; 80% in [8] (setting [11]); 100% in test [4]; 100% in test [5]. Moreover, the “efficacy (rate of extermination)” value in test [1] and in test [7] was 100% in each case. The “efficacy (laying of fertile eggs)” value in test [3] is given as 100%; in test [6] it was 80%.

On to `CC(=O)NCc1cc(-c2cnn(-c3c(C)cc(C(F)(C(F)(F)F)C(F)(F)F)cc3Cl)c2)ccc1C` [Ia-75], for which the efficacy in test [9], in test [2], in test [8] (setting [11]), in [4] and in [5] was 100% in each case. For the same compound, the “efficacy (rate of extermination)” value in test [1] and in test [7] was 100% in each case. Further, the “efficacy (laying of fertile eggs)” value in test [3] and in test [6] was 100% in each case.

In the case of `CCC(=O)NCc1cc(-c2cnn(-c3c(Cl)cc(C(F)(C(F)(F)F)C(F)(F)F)cc3C(F)F)c2)ccc1Cl` [Ia-115], the efficacy in test [9], in [2], in test [8] (setting [11]), in [4] and in test [5] was 100% throughout. In addition, the “efficacy (rate of extermination)” value in [1] and in test [7] was 100% throughout. For the same compound, the “efficacy (laying of fertile eggs)” value in test [3] and in test [6] was 100% throughout.

For `CCC(=O)NCc1cc(-c2cnn(-c3c(Cl)cc(C(F)(C(F)(F)F)C(F)(F)F)cc3C(F)(F)F)c2)ccc1F` [Ia-83], the efficacy in [9] is 100%; in test [2], 100%; in [8] (setting [11]) it was 100%; in [4] it was 100%; in [5], 90%. In addition, the “efficacy (rate of extermination)” value in test [1] and in [7] was 100% each time. The “efficacy (laying of fertile eggs)” value in [3] is listed as 100%; in test [6], 80%.

Consider `CCC(=O)NCc1cc(-c2cnn(-c3c(C)cc(C(F)(C(F)(F)F)C(F)(F)F)cc3Cl)c2)ccc1F` [Ia-66], for which the efficacy in [9] amounted to 100%; in [2], 100%; in [10] it was 70%; in test [8] (setting [11]) it was 100%; in [4], 100%; in test [5] it was 100%. The “efficacy (rate of extermination)” value in test [1] and in [7] was 100% in each case. The “efficacy (laying of fertile eggs)” value is reported as 100% in test [3] and 95% in test [6].

As for `CC(=O)NCc1cc(-c2cnn(-c3c(Cl)cc(C(F)(C(F)(F)F)C(F)(F)F)cc3C(F)F)c2)cnc1Cl` [Ia-145], the “efficacy (rate of extermination)” value in test [1] and in [7] was 100% each time. The efficacy in [2] is reported as 100%; in test [10], 90%; in [4] it was 100%; in test [5], 100%. The “efficacy (laying of fertile eggs)” value in [3] and in [6] was 100% throughout.

On to `CC(=O)NCc1cc(-c2cnn(-c3c(Cl)cc(C(F)(C(F)(F)F)C(F)(F)F)cc3Br)c2)ccc1Cl` [Ia-91], for which the “efficacy (rate of extermination)” value in test [1] and in test [7] was 100% throughout. In addition, the efficacy in test [2], in test [4] and in [5] was 100% in each case. In addition, the results for the “efficacy (laying of fertile eggs)” value in [3] and in test [6] were 100% and 80%, respectively.

`CC(=O)NCc1cc(-c2cnn(-c3c(Cl)cc(C(F)(C(F)(F)F)C(F)(F)F)cc3Cl)c2)ccc1C` [Ia-90]: the efficacy in test [9] came out at 100%; in test [2], 100%; in [10] it was 90%; in test [8] (setting [11]) it was 100%; in test [4] it was 100%; in test [5], 100%. In addition, the “efficacy (rate of extermination)” value in test [1] and in test [7] was 100% in each case. Also, the “efficacy (laying of fertile eggs)” value in [3] and in test [6] was 100% in each case.

The values above are taken from US10357036B2, “Compounds for controlling arthropods” (priority 2015, dated 2019).
